The record followed here is patent publication US8916551B2, “Heterocyclic compound and use thereof” (Takeda Pharmaceutical Company Limited, priority 2010, dated 2014).

Data set [1] deals with T1, AMPA receptor (human GluR1 flip/stargazin expressed in CHO-K1 cells) (Homo sapiens, UniProt P42261).
T1 construct: expressed in transfected cells; host or cells: CHO-K1
The data set is described as follows: AMPA receptor function enhancing activity using calcium influx as index. The data set is classed as cell-based. To be noted: test compound 30 μM with glutamic acid final 3 mM, change in fluorescence in 3 min, 100% = 3 mM glutamic acid + 300 μM cyclothiazide, 0% = 3 mM glutamic acid only. An outline of the steps: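 CHO-K1 clone stably co-expressing human GluR1 flip and stargazin, loaded with Calcium 4 dye plus probenecid. Compound at 30 μM was added with glutamate (3 mM final) and fluorescence change followed over 3 min. Activity is expressed as % of the 3 mM glutamate plus 300 μM cyclothiazide response, with glutamate alone as 0%.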

The structures appear in SMILES notation.

T1 sequence (P42261 19-906 isoform P42261-2 limits assumed): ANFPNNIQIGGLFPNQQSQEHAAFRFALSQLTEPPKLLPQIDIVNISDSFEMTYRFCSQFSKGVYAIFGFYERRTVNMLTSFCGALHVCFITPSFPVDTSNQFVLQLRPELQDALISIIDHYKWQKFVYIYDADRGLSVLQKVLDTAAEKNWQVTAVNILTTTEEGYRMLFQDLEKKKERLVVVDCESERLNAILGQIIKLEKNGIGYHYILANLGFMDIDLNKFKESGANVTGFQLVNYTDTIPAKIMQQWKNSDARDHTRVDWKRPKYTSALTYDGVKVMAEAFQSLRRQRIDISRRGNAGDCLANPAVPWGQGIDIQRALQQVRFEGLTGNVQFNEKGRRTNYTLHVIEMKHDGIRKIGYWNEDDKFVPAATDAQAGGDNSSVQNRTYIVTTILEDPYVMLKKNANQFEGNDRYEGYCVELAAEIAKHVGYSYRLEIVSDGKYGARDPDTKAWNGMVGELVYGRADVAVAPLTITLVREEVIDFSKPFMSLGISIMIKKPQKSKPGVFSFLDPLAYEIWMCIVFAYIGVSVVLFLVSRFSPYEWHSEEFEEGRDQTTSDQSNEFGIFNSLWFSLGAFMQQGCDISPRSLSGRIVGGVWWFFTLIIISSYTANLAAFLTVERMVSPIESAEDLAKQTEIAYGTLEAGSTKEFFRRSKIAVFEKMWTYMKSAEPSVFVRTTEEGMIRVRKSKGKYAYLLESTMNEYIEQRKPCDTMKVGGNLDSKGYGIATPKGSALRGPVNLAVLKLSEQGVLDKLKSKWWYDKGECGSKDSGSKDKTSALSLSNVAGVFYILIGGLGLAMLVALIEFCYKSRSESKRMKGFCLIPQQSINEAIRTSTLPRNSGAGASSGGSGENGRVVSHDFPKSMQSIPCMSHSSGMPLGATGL
T1 sequence (Q9Y698 whole entry partner): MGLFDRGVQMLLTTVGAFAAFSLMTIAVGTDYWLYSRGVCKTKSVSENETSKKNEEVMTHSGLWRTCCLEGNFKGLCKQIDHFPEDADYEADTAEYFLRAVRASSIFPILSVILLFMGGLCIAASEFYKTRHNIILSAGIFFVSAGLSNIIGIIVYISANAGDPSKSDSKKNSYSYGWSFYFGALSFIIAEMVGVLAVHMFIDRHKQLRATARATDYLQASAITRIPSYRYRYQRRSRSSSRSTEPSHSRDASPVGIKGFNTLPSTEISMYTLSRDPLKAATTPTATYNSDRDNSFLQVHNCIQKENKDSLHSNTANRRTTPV

Take `O=S1(=O)CCN2C=CC=C(c3ccc(-c4ccccc4)cc3)C2=N1` [Example 14, 9-biphenyl-4-yl-3,4-dihydropyrido[2,1-c][1,2,4]thiadiazine 2,2-dioxide]: the melting point (usually the temperature of the solid-liquid transition) lay within 315 to 316 °C. The “activity (%)” value in data set [1] is on record as 78%. For `CC(C)c1ccc(C2=CC=CN3CCS(=O)(=O)N=C23)cc1` [Example 23, 9-[4-(1-methylethyl)phenyl]-3,4-dihydropyrido[2,1-c][1,2,4]thiadiazine 2,2-dioxide], in that order: 239 to 241 °C and 104%. The compound `CC(C)c1ccc(C#CC2=CC=CN3CCS(=O)(=O)N=C23)cc1` [Example 26, 9-{[4-(1-methylethyl)phenyl]ethynyl}-3,4-dihydropyrido[2,1-c][1,2,4]thiadiazine 2,2-dioxide] came in with a melting point of 258 to 262 °C. In addition, the “activity (%)” value in data set [1] is 87%.

`O=S1(=O)CCN2CCCC(c3ccc(-c4ccccc4)cc3)C2=N1` (stereo not drawn) [Example 28, 9-biphenyl-4-yl-3,4,6,7,8,9-hexahydropyrido[2,1-c][1,2,4]thiadiazine 2,2-dioxide] returned a melting point of 238 to 239 °C. Moreover, the “activity (%)” value in data set [1] is on record as 80%. For `O=S1(=O)CCN2C=CC=C(c3ccc(Oc4ccccc4)cc3)C2=N1` [Example 31, 9-(4-phenoxyphenyl)-3,4-dihydropyrido[2,1-c][1,2,4]thiadiazine 2,2-dioxide], in that order: 252 to 253 °C and 79%. Compound `CCC(C)c1ccc(C2=CC=CN3CCS(=O)(=O)N=C23)cc1` (stereo not drawn) [Example 32, 9-[4-(1-methylpropyl)phenyl]-3,4-dihydropyrido[2,1-c][1,2,4]thiadiazine 2,2-dioxide] came in with a melting point of 237 to 239 °C. On the same count and under the same terms, next, `CC(C)Oc1ccc(C2=CC=CN3CCS(=O)(=O)N=C23)cc1` [Example 33, 9-[4-(1-methylethoxy)phenyl]-3,4-dihydropyrido[2,1-c][1,2,4]thiadiazine 2,2-dioxide]: 245 to 247 °C; `CC(C)(C)c1ccc(C2=CC=CN3CCS(=O)(=O)N=C23)cc1` [Example 35, 9-(4-tert-butylphenyl)-3,4-dihydropyrido[2,1-c][1,2,4]thiadiazine 2,2-dioxide]: 291 to 292 °C.

`CC(C)(C)c1ccc(C2CCCN3CCS(=O)(=O)N=C23)cc1` (stereo not drawn) [Example 38, 9-(4-tert-butylphenyl)-3,4,6,7,8,9-hexahydropyrido[2,1-c][1,2,4]thiadiazine 2,2-dioxide] yielded a melting point of 232 to 236 °C. The same measure, in the same setting: as for `CC(C)Oc1ccc(C2CCCN3CCS(=O)(=O)N=C23)cc1` (stereo not drawn) [Example 40, 9-[4-(1-methylethoxy)phenyl]-3,4,6,7,8,9-hexahydropyrido[2,1-c][1,2,4]thiadiazine 2,2-dioxide], the figure is 191 to 192 °C; as for `O=S1(=O)CCN2CCCC(c3ccc(OC(F)(F)F)cc3)C2=N1` (stereo not drawn) [Example 41, 9-[4-(trifluoromethoxy)phenyl]-3,4,6,7,8,9-hexahydropyrido[2,1-c][1,2,4]thiadiazine 2,2-dioxide], 207 to 208 °C; as for `CC(C)c1ccc(C2CCCN3CCS(=O)(=O)N=C23)cc1` (stereo not drawn) [Example 42, 9-[4-(1-methylethyl)phenyl]-3,4,6,7,8,9-hexahydropyrido[2,1-c][1,2,4]thiadiazine 2,2-dioxide], 198 to 203 °C.

With `O=S1(=O)CCN2C=CC=C(c3ccc(-c4ccccc4)s3)C2=N1` [Example 50, 9-(5-phenylthiophen-2-yl)-3,4-dihydropyrido[2,1-c][1,2,4]thiadiazine 2,2-dioxide], the melting point was 241 to 242 °C. Same read-out and setting: next, `O=S1(=O)CCN2CCC[C@H](c3ccc(Oc4ccccc4)cc3)C2=N1` [Example 62, (9R)-9-(4-phenoxyphenyl)-3,4,6,7,8,9-hexahydropyrido[2,1-c][1,2,4]thiadiazine 2,2-dioxide]: 171 to 176 °C; `O=S1(=O)CCN2C=CC=C(c3ccc(OC4CCCC4)cc3)C2=N1` [Example 66, 9-[4-(cyclopentyloxy)phenyl]-3,4-dihydropyrido[2,1-c][1,2,4]thiadiazine 2,2-dioxide]: 254 to 256 °C; `O=S1(=O)CCN2C=CC=C(c3ccc(OCC4CCCC4)cc3)C2=N1` [Example 74, 9-[4-(cyclopentylmethoxy)phenyl]-3,4-dihydropyrido[2,1-c][1,2,4]thiadiazine 2,2-dioxide]: 258 to 259 °C.

With `O=S1(=O)CCN2C=C(Cl)C=C(c3ccc(Oc4cc(C(F)(F)F)ccn4)cc3)C2=N1` [Example 76, 7-chloro-9-(4-{[4-(trifluoromethyl)pyridin-2-yl]oxy}phenyl)-3,4-dihydropyrido[2,1-c][1,2,4]thiadiazine 2,2-dioxide], the melting point lay within 238 to 239 °C. In the case of `O=S1(=O)CCN2CCCC(c3ccc(Oc4ccc(Cl)cc4)cc3)C2=N1` (stereo not drawn) [Example 150, 9-[4-(4-chlorophenoxy)phenyl]-3,4,6,7,8,9-hexahydropyrido[2,1-c][1,2,4]thiadiazine 2,2-dioxide], the melting point lay in the range of 183 to 185 °C. Same read-out and setting: as for `O=S1(=O)CCN2C=CC=C(c3ccc(OC4CCCCC4)cc3)C2=N1` [Example 165, 9-[4-(cyclohexyloxy)phenyl]-3,4-dihydropyrido[2,1-c][1,2,4]thiadiazine 2,2-dioxide], the figure is 275 to 277 °C; as for `O=S1(=O)CCN2C=CC=C(c3ccc(Oc4ccccc4)cc3)C2=N1` [Example 166, 9-(4-phenoxyphenyl)-3,4-dihydropyrido[2,1-c][1,2,4]thiadiazine 2,2-dioxide], 251 to 252 °C. Same read-out and setting: next, `O=S1(=O)CCN2C=CC=C(c3ccc(Oc4ccccc4)cc3)C2=N1` [Example 167, 9-(4-phenoxyphenyl)-3,4-dihydropyrido[2,1-c][1,2,4]thiadiazine 2,2-dioxide]: 253 to 255 °C; `Cc1ccc(Oc2ccc(C3=CC=CN4CCS(=O)(=O)N=C34)cc2)cc1` [Example 168, 9-[4-(4-methylphenoxy)phenyl]-3,4-dihydropyrido[2,1-c][1,2,4]thiadiazine 2,2-dioxide]: 248 to 250 °C.

For the compound `CC(F)(F)c1ccc(Oc2ccc(C3CCCN4CCS(=O)(=O)N=C34)cc2)cc1` (stereo not drawn) [Example 170, 9-{4-[4-(1,1-difluoroethyl)phenoxy]phenyl}-3,4,6,7,8,9-hexahydropyrido[2,1-c][1,2,4]thiadiazine 2,2-dioxide], the melting point was 171 to 172 °C. Consider `CCCOc1ccc(C2CCCN3CCS(=O)(=O)N=C23)cc1` (stereo not drawn) [Example 190, 9-(4-propoxyphenyl)-3,4,6,7,8,9-hexahydropyrido[2,1-c][1,2,4]thiadiazine 2,2-dioxide], for which the melting point is 169 to 170 °C. Still for that read-out and setting: next, `O=S1(=O)CCN2C=CC=C(c3ccc(Oc4ccc(C(F)(F)F)cc4)cc3)C2=N1` [Example 200, 9-{4-[4-(trifluoromethyl)phenoxy]phenyl}-3,4-dihydropyrido[2,1-c][1,2,4]thiadiazine 2,2-dioxide]: 253 to 255 °C; `CCCCOc1ccc(C2=CC=CN3CCS(=O)(=O)N=C23)cc1` [Example 209, 9-(4-butoxyphenyl)-3,4-dihydropyrido[2,1-c][1,2,4]thiadiazine 2,2-dioxide]: 230 to 232 °C; `O=S1(=O)CCN2CCN[C@@H](c3ccc(Oc4ccccc4)cc3)C2=N1` [Example 212, (9S)-(4-phenoxyphenyl)-3,4,6,7,8,9-hexahydropyrazino[2,1-c][1,2,4]thiadiazine 2,2-dioxide]: 124 to 125 °C. On the same count and under the same terms, as for `O=S1(=O)CCN2CCN[C@H](c3ccc(Oc4ccccc4)cc3)C2=N1` [Example 213, (9R)-9-(4-phenoxyphenyl)-3,4,6,7,8,9-hexahydropyrazino[2,1-c][1,2,4]thiadiazine 2,2-dioxide], the figure is 124 to 125 °C.

In turn, `CCc1ccc(Oc2ccc([C@H]3CCCN4CCS(=O)(=O)N=C34)cc2)cc1` [Example 217, (9R)-9-[4-(4-ethylphenoxy)phenyl]-3,4,6,7,8,9-hexahydropyrido[2,1-c][1,2,4]thiadiazine 2,2-dioxide] returned a melting point of 152 to 153 °C. Still for that read-out and setting: as for `O=S1(=O)CCN2CCCC(c3ccc(Oc4ccc(C(F)(F)F)cc4)cc3)C2=N1` (stereo not drawn) [Example 233, 9-{4-[4-(trifluoromethyl)phenoxy]phenyl}-3,4,6,7,8,9-hexahydropyrido[2,1-c][1,2,4]thiadiazine 2,2-dioxide], the figure is 177 to 179 °C.

In the case of `O=S1(=O)CCN2CCCC(c3ccc(Oc4ccccc4Cl)cc3)C2=N1` (stereo not drawn) [Example 433, 9-[4-(2-chlorophenoxy)phenyl]-3,4,6,7,8,9-hexahydropyrido[2,1-c][1,2,4]thiadiazine 2,2-dioxide], the “activity (%)” value in data set [1] was 55%. Same read-out and setting: next, `O=S1(=O)CCN2CCCC(c3ccc(Oc4ccc(F)c(Cl)c4)cc3)C2=N1` (stereo not drawn) [Example 447, 9-[4-(3-chloro-4-fluorophenoxy)phenyl]-3,4,6,7,8,9-hexahydropyrido[2,1-c][1,2,4]thiadiazine 2,2-dioxide]: 78%. As to `O=S1(=O)CCN2CCC[C@@H](c3ccc(Oc4ccc(F)c(Cl)c4)cc3)C2=N1` [Example 457, (9S)-9-[4-(3-chloro-4-fluorophenoxy)phenyl]-3,4,6,7,8,9-hexahydropyrido[2,1-c][1,2,4]thiadiazine 2,2-dioxide], the melting point fell in the range of 154 to 156 °C. `COc1ccc2ccc(OC3CCCN4CCS(=O)(=O)N=C34)cc2c1` (stereo not drawn) [Example 462, 9-[(7-methoxynaphthalen-2-yl)oxy]-3,4,6,7,8,9-hexahydropyrido[2,1-c][1,2,4]thiadiazine 2,2-dioxide]: the “activity (%)” value in data set [1] came to 69%.
